Assay results published in patent US8183387B2, “Phenylpyrazole derivatives” (Taisho Pharmaceutical Co., Ltd, priority 2007, dated 2012).

How the values were obtained:
human H3 receptor [1] = target: T1, human H3 receptor (Homo sapiens, UniProt Q9Y5N1); assay: [35S]GTP-γ-S binding test
Description: After completion of the reaction, [^35S]GTP-γ-S (0.2 nM) was added and reacted for an additional 30 minutes. After completion of the reaction, the reaction mixture was subjected to suction filtration through a glass filter (GF/C). The glass filter was washed three times with 20 mM HEPES washing solution (pH 7.4) containing 100 mM sodium chloride and 1 mM magnesium chloride. After washing, the glass filter was dried and a scintillator was added thereto, followed by measurement of radioactivity on the filter using a liquid scintillation counter.
Binding of [^35S]GTP-γ-S in the absence of R(−)-α-methylhistamine was defined as non-specific binding, and the difference between total binding in the presence of R(−)-α-methylhistamine and non-specific binding was defined as specific binding of [^35S]GTP-γ-S. Fixed concentrations of [^35S]GTP-γ-S (0.2 nM) and R(−)-α-methylhistamine (100 μM) were reacted under the above conditions with each test drug at various concentrations to obtain an inhibition curve.

human H3 receptor [2] = target: T1, human H3 receptor; assay: H3 receptor binding test (R(−)-α-methyl[3H]histamine); parameters: purchased Euroscreen ES-392-M; host or cells: CHO-K1; conditions: inhibition of R(−)-α-methyl[3H]histamine (2 nM) binding, membrane of human H3 receptor-expressing CHO-K1 cells
Description: A membrane preparation of human H3 receptor-expressing CHO-K1 cells (Euroscreen, ES-392-M, 15 μg protein/200 μl), R(−)-α-methyl[^3H]histamine (Amersham, TRK-1017, specific activity: 1.74 TBq/mmol, 2 nM) and a test drug were reacted at room temperature for 1 hour. After completion of the reaction, the reaction mixture was subjected to suction filtration through a 0.3% polyethyleneimine-treated glass filter (GF/C). The glass filter was washed five times with 50 mM Tris-HCl washing solution (pH 7.4) containing 5 mM EDTA. After washing, the glass filter was dried and a scintillator was added thereto, followed by measurement of radioactivity on the filter using a liquid scintillation counter.
A fixed concentration (2 nM) of R(−)-α-methyl[^3H]histamine was reacted under the above conditions with each test drug at various concentrations to obtain an inhibition curve.

σ1 receptor = target: T2, σ1 receptor (Homo sapiens, UniProt Q99720); assay: [3H](+)pentazocine binding test; conditions: [3H](+)pentazocine 8 nM, Jurkat cell membrane
T2 construct: host or cells: Jurkat cells (membrane)
Description: Affinity for σ1 receptor was evaluated in a [^3H](+)pentazocine binding test by Cerep, Inc. The σ1 receptor preparation used was the membrane of Jurkat cells. The Jurkat cell membrane was incubated with [^3H](+)pentazocine (8 nM) at 22° C. for 120 minutes.

CHL/IU cells = assay: Cytotoxicity test; format: cell-based, Chinese hamster; conditions: 48 hours culture, Cell counting kit-8
Description: Chinese hamster lung fibroblast-derived CHL/IU cells (DS Pharma Biomedical Co., Ltd., Japan) were seeded, and the medium was replaced on the following day by another medium (MEM+2 mM L-Glutamine+10% CS (all purchased from Invitrogen)) containing a test compound at various concentrations, followed by culture for an additional 48 hours. Using a Cell counting kit-8 (Dojindo Laboratories, Japan), the survival rate of the cells was determined to obtain a curve whose horizontal axis represents the test compound concentration and whose vertical axis represents the survival rate. The curve thus obtained was used to determine the concentration of the test compound at which the survival rate was 50%. As a result, this concentration was 275, 441 and >640 mmol/L for the compounds of Examples 56, 62 and 70, respectively.

T1 sequence (Q9Y5N1 whole entry): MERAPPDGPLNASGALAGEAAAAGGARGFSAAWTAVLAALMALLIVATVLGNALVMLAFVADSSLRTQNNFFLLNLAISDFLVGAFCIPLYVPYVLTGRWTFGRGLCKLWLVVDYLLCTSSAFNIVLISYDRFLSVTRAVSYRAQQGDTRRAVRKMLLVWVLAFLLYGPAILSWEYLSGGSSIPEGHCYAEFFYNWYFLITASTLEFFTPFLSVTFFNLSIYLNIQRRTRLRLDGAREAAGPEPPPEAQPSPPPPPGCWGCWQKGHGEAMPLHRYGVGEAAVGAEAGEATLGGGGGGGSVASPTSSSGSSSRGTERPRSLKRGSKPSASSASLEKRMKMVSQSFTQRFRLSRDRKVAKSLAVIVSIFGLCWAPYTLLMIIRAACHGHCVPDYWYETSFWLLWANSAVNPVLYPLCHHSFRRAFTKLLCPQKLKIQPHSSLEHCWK
T2 sequence (Q99720 whole entry): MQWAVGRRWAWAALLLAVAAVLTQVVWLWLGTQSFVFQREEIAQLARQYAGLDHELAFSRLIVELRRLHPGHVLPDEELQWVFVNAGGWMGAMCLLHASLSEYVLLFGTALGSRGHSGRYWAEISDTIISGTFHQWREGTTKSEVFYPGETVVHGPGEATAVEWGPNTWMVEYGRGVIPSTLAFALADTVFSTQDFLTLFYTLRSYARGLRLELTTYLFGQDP

| IC50 (human H3 receptor [2]) [nM] | SMILES | other results |
| --- | --- | --- |
| 4.1 | C[C@@H]1CCCN1CCCOc1ccc(-n2cc(C(=O)N3CCCOCC3)cn2)cc1 [Example 54, [1-(4-{3-[(2R)-2-methylpyrrolidin-1-yl]propoxy}phenyl)-1H-pyrazol-4-yl](1,4-oxazepan-4-yl)methanone] | inhibition at 10 µM (σ1 receptor): 39% |
| 5.2 | C[C@@H]1CCCN1CCCOc1ccc(-n2cc(C(=O)N3CCN(C)CC3)cn2)cc1 [Example 55, (4-methylpiperazin-1-yl)[1-(4-{3-[(2R)-2-methylpyrrolidin-1-yl]propoxy}phenyl)-1H-pyrazol-4-yl]methanone] | inhibition at 10 µM (σ1 receptor): 3% |
| 2.8 | C[C@@H]1CCCN1CCCOc1ccc(-n2cc(C(=O)N3CCCC3)cn2)cc1 [Example 56, [1-(4-{3-[(2R)-2-methylpyrrolidin-1-yl]propoxy}phenyl)-1H-pyrazol-4-yl](pyrrolidin-1-yl)methanone] | concentration of the test compound at which the survival rate was 50% (CHL/IU cells): 275 mmol/L |
| 50.7 | CC1CCN(CCCOc2ccc(-n3cc(C(=O)N4CCOCC4)cn3)cc2)C1 (centres unmarked) [Example 57, (1-{4-[3-(3-methylpyrrolidin-1-yl)propoxy]phenyl}-1H-pyrazol-4-yl)(morpholin-4-yl)methanone] | – |
| 8.7 | CCC1CCCN1CCCOc1ccc(-n2cc(C(=O)N3CCOCC3)cn2)cc1 (centres unmarked) [Example 58, (1-{4-[3-(2-ethylpyrrolidin-1-yl)propoxy]phenyl}-1H-pyrazol-4-yl)(morpholin-4-yl)methanone] | – |
| 1180 | O=C(c1cnn(-c2ccc(OCCCN3CCCC3(F)F)cc2)c1)N1CCOCC1 [Example 59, (1-{4-[3-(2,2-difluoropyrrolidin-1-yl)propoxy]phenyl}-1H-pyrazol-4-yl)(morpholin-4-yl)methanone] | – |
| 1560 | C[C@@H]1CCCN1CCOc1ccc(-n2cc(C(=O)N3CCOCC3)cn2)cc1 [Example 60, [1-(4-{2-[(2R)-2-methylpyrrolidin-1-yl]ethoxy}phenyl)-1H-pyrazol-4-yl](morpholin-4-yl)methanone] | – |
| 8.7 | C[C@@H]1CCCN1CCCOc1ccc(-n2cc(C(=O)N3CCOCC3)cn2)cc1F [Example 62, [1-(3-fluoro-4-{3-[(2R)-2-methylpyrrolidin-1-yl]propoxy}phenyl)-1H-pyrazol-4-yl](morpholin-4-yl)methanone] | concentration of the test compound at which the survival rate was 50% (CHL/IU cells): 441 mmol/L |
| 20.7 | Cc1cc(OCCCN2CCC[C@H]2C)ccc1-n1cc(C(=O)N2CCOCC2)cn1 [Example 63, [1-(2-methyl-4-{3-[(2R)-2-methylpyrrolidin-1-yl]propoxy}phenyl)-1H-pyrazol-4-yl](morpholin-4-yl)methanone] | – |
| 10 | C[C@@H]1CCCN1CCCOc1ccc(-n2cc(C(=O)N3CCOCC3)cn2)cc1Br [Example 64, [1-(3-bromo-4-{3-[(2R)-2-methylpyrrolidin-1-yl]propoxy}phenyl)-1H-pyrazol-4-yl](morpholin-4-yl)methanone] | – |
| 5.9 | C[C@@H]1CCCN1CCCOc1ccc(-n2cc(C(=O)N3CCOC(O)C3)cn2)cc1 (stereo partly drawn) [Example 65, (2-hydroxymorpholin-4-yl)[1-(4-{3-[(2R)-2-methylpyrrolidin-1-yl]propoxy}phenyl)-1H-pyrazol-4-yl]methanone] | – |
| 74.8 | C[C@@H]1CCCN1CCCOc1ccc(-n2cc(C(=O)N(CCO)CC(=O)O)cn2)cc1 [Example 68, N-(2-hydroxyethyl)-N-{[1-(4-{3-[(2R)-2-methylpyrrolidin-1-yl]propoxy}phenyl)-1H-pyrazol-4-yl]carbonyl}glycine] | – |
| 4.6 | C[C@@H]1CCCN1CCCOc1ccc(-n2cc(C(=O)NCCOCCO)cn2)cc1 [Example 69, N-[2-(2-hydroxyethoxy)ethyl]-1-{4-[3-(2-methylpyrrolidin-1-yl)propoxy]phenyl}-1H-pyrazole-4-carboxamide] | – |

The next lines start with the molecule.

| SMILES | IC50 (human H3 receptor [2]) [nM] | other results |
| --- | --- | --- |
| C[C@@H]1CCCN1CCCOc1ccc(-n2cc(N3CCCC3=O)cn2)cc1 [Example 30, 1-[1-(4-{3-[(2R)-2-methylpyrrolidin-1-yl]propoxy}phenyl)-1H-pyrazol-4-yl]pyrrolidine-2-one] | 3.3 | IC50 (human H3 receptor [1]): 1.7 nM |
| C[C@@H]1CCCN1CCCOc1ccc(-n2cc(NC(=O)Cc3ccc(O)cc3)cn2)cc1 [Example 45, 2-(4-hydroxyphenyl)-N-[1-(4-{3-[(2R)-2-methylpyrrolidin-1-yl]propoxy}phenyl)-1H-pyrazol-4-yl]acetamide] | 1.1 | – |
| C[C@@H]1CCCN1CCCOc1ccc(-n2cc(NC(=O)Cc3cccnc3)cn2)cc1 [Example 46, N-[1-(4-{3-[(2R)-2-methylpyrrolidin-1-yl]propoxy}phenyl)-1H-pyrazol-4-yl]-2-(pyridin-3-yl)acetamide] | 1.4 | – |
| C[C@@H]1CCCN1CCCOc1ccc(-n2cc(NC(=O)Cc3ccncc3)cn2)cc1 [Example 47, N-[1-(4-{3-[(2R)-2-methylpyrrolidin-1-yl]propoxy}phenyl)-1H-pyrazol-4-yl]-2-(pyridin-4-yl)acetamide] | 1.5 | – |
| C[C@@H]1CCCN1CCCOc1ccc(-n2cc(NS(C)(=O)=O)cn2)cc1 [Example 48, N-[1-(4-{3-[(2R)-2-methylpyrrolidin-1-yl]propoxy}phenyl)-1H-pyrazol-4-yl]methanesulfonamide] | 4.1 | – |
| C[C@@H]1CCCN1CCCOc1ccc(-n2cc(N(C)S(C)(=O)=O)cn2)cc1 [Example 49, N-methyl-N-[1-(4-{3-[(2R)-2-methylpyrrolidin-1-yl]propoxy}phenyl)-1H-pyrazol-4-yl]methanesulfonamide] | 3.1 | – |
| CC1CCCN1CCCOc1ccc(-n2cc(NS(=O)(=O)c3ccc(C#N)cc3)cn2)cc1 (centres unmarked) [Example 50, 4-cyano-N-(1-{4-[3-(2-methylpyrrolidin-1-yl)propoxy]phenyl}-1H-pyrazol-4-yl)benzenesulfonamide] | 31.9 | – |
| C[C@@H]1CCCN1CCCOc1ccc(-n2cc(NS(=O)(=O)c3cccnc3)cn2)cc1 [Example 51, N-[1-(4-{3-[(2R)-2-methylpyrrolidin-1-yl]propoxy}phenyl)-1H-pyrazol-4-yl]pyridine-3-sulfonamide] | 13.7 | – |
| CC1CCCN1CCCOc1ccc(-n2cc(N3C(=O)CCC3=O)cn2)cc1 (centres unmarked) [Example 52, 1-(1-{4-[3-(2-methylpyrrolidin-1-yl)propoxy]phenyl}-1H-pyrazol-4-yl)pyrrolidine-2,5-dione] | 6 | – |
| C[C@@H]1CN(C(=O)c2cnn(-c3ccc(OCCCN4CCC[C@H]4C)cc3)c2)C[C@H](C)O1 [Example 53, (2,6-dimethylmorpholin-4-yl)[1-(4-{3-[(2R)-2-methylpyrrolidin-1-yl]propoxy}phenyl)-1H-pyrazol-4-yl]methanone] | 6.1 | – |
| C[C@@H]1CCCN1CCCCOc1ccc(-n2cc(C(=O)N3CCOCC3)cn2)cc1 [Example 61, [1-(4-{4-[(2R)-2-methylpyrrolidin-1-yl]butoxy}phenyl)-1H-pyrazol-4-yl](morpholin-4-yl)methanone] | 39.2 | – |
